Measurements taken from patent US12409151B2, “Transdermal device comprising NSAID or analgesic prodrug molecules” (Remedy Diagnostics LLC, priority 2019, dated 2025).
Values after ≈ are worked out from the molar mass of the structure shown. Values joined by “and” are separate entries in the source; they are usually repeats but may differ in a detail not shown here. Identical values can stand only once. Like-named read-outs stand apart in the source and are kept apart here.

Legend:
[1] = physchem; conditions: for solubility: organic solvent or mixture, thermodynamic from solid, solubility in F1
Experimental: This example illustrates the solubilities of APAP, IBU, Pro-APAP, and Pro-IBU in vehicle formulations F1 and F2.
Formulation F1 consisted of 50% Polyethylene Glycol (MW grade: 400) in 50% Ethanol. 50.2 mg of IBU was dissolved in 10.0 mL of F1, to produce a solution with a concentration of 5.02 mg/mL.

[2] = Skin permeation across excised human skin (Franz cell), UV-Vis of receptor media; type: in vitro ADME
Experimental: Skin Permeation Studies: Upon completion of the solubility and stability studies, the ability of the compound to permeate the skin in the selected solvent/vehicle was tested and the rate of permeation was measured to determine whether the compound permeated to an extent relevant for clinical use in a transdermal patch. Specifically, 4-acetoxyacetanilide was assessed for skin permeation across human skin over a 24 h time period.
Methods: For the skin permeation studies, a sample chamber containing 5 mL of 50% Polyethylene glycol 400 in ethanol was used as the receptor media. An initial sample of receptor media was drawn at the onset of testing to test for interferents and subsequent samples of 1 mL each were taken at the following time-points: 0.5 h, 1 h, 2 h, 5 h, 8 h, and 24 h. These samples were analyzed via UV-Vis spectroscopy (Tecan m200 Infinity Multi-Well Plate Reader) for absorbance at 246 nm and were blanked relative to that of the empty vehicle.
Materials: 4-acetoxyacetanilide (Pro-APAP), Formulation Solvent: 50% DMSO in Polyethylene Glycol 400, and Receptor Media: 50% Ethanol in Polyethylene Glycol 400 at 37° C.
Skin permeation studies: Upon completion of the solubility and stability studies, the ability of the pro-IBU compound to permeate the skin in the selected solvent/vehicle was tested and the rate of permeation was measured to determine whether the compound will permeate to an extent relevant for clinical use in a transdermal patch. Specifically, ethyl 2-(4-isobutylphenyl)-propanoate was assessed for skin permeation across human skin over a 24 h time period.
Materials: ethyl 2-(4-isobutylphenyl)-propanoate (pro-IBU), Formulation Solvent: 50% DMSO in Polyethylene Glycol 400, Receptor Media: 50% Ethanol in Polyethylene Glycol 400 at 37° C.

[3] = Solutions in permeation enhanced vehicle formulation F3; type: physicochemical; conditions: F3: 33.3% DMSO and 66.6% ethanol; dissolved in neat ethanol, then DMSO added
Experimental: A permeation enhanced vehicle formulation F3 was developed consisting of 33.3% dimethylsulfoxide (DMSO) and 66.6% ethanol. A solution of Pro-APAP in F3 was prepared by first dissolving 30.5 mg of Pro-APAP into 2 mL neat ethanol, and then slowly adding 1 mL DMSO to reach a 3 mL 10.1 mg/mL solution with a final DMSO concentration of 33.3%.
A solution of Pro-IBU in F3 was prepared by first dissolving 67.0 mg of Pro-IBU into 1 mL neat ethanol, and then slowly adding 0.50 mL DMSO to reach 1.5 mL of a 44.6 mg/mL solution with a final DMSO concentration of 33.3%.

[4] = Stability of prodrugs in vehicle F3, monitored visually; type: physicochemical
Experimental: This example evaluated the stability of each of the prodrugs in vehicle F3.
A 50 mg/ml solution of Pro-APAP in F3 was prepared and monitored visually for three months to check for stability. […] was determined to be stable in this solution for the duration of the experiment.
A 70 mg/ml solution of Pro-IBU in F3 was prepared and monitored visually for three months to check for stability. […] was determined to be stable in this solution for the duration of the experiment.

[5] = cited from earlier work
[6] = 5 Hr, cumulative mass into receptor media, excised human skin, Franz cell 0.64 cm^2, 37° C.
[7] = 8 Hr, cumulative mass into receptor media, excised human skin, Franz cell 0.64 cm^2, 37° C.
[8] = 24 Hr, cumulative mass into receptor media, excised human skin, Franz cell 0.64 cm^2, 37° C.
[9] = 24 h, excised human skin, Franz cell, 37° C., 50% DMSO in PEG 400

With `CC(=O)Nc1ccc(O)cc1` [APAP, acetaminophen, reference compound] the solubility [1] was 12.8 mg/mL (≈ 84.7 mM).

For `CC(=O)Nc1ccc(OC(C)=O)cc1` [Pro-APAP, 4-acetoxyacetanilide], the “Maximum (mass released)” value [2, 6] was 10.8 µg and 10.88 µg, the “Minimum (mass released)” value [2, 6] was 4.73 µg and the “Average Mass Released” value ([2]; 5 Hr, cumulative mass into receptor media, excised human skin, Franz cell 0.64 cm^2, 37° C., 50% DMSO in PEG 400) was 7.15 µg and 7.16 µg. The “Maximum (mass released)” value [2, 7] was 15.34 µg, the “Minimum (mass released)” value [2, 7] was 10.04 µg and the “Average Mass Released” value ([2]; 8 Hr, cumulative mass into receptor media, excised human skin, Franz cell 0.64 cm^2, 37° C., 50% DMSO in PEG 400) was 12.20 µg. For the same molecule, the “Maximum (mass released)” value [2, 8] was 91.94 µg and 91.95 µg, the “Minimum (mass released)” value [2, 8] was 55.45 µg and the “Average Mass Released” value ([2]; 24 Hr, cumulative mass into receptor media, excised human skin, Franz cell 0.64 cm^2, 37° C., 50% DMSO in PEG 400) was 76.15 µg and 76.16 µg. The “concentration of Pro-APAP in receptor media, maximum” value [2, 9] was 15.78 µg/mL, the “concentration of Pro-APAP in receptor media, minimum” value [2, 9] was 8.76 µg/mL and the “concentration of Pro-APAP in receptor media, average” value ([2]; 24 h, excised human skin, Franz cell, 37° C., formulation solvent 50% DMSO in PEG 400, receptor 50% ethanol in PEG 400, blank subtracted) was 12.36 µg/mL. The “permeability (permeation) coefficient range” value ([2]; calculated, human skin, 24 h study, 50% DMSO in PEG 400) was 3.61-5.98 μg/h/cm^2, the “total cumulative amount permeated” value ([2]; human skin over 24 h, 50% DMSO in PEG 400) was “around 80 μg per 0.66 cm^2” and the “solubility in F1” value [1] was 12.5 mg/mL (≈ 64.7 mM). For the same molecule, the “concentration of solution prepared in F3” value [3] was 10100 µg/mL, the “stability in solution in F3” value ([4]; 50 mg/ml solution in F3, monitored visually for three months) was “stable” and the “stability in solution in F3” value ([4]; 70 mg/ml solution of Pro-IBU in F3, monitored visually for three months) was “stable”. For the same molecule, the solubility ([5]; in chloroform, DMSO, and methanol) was “slightly soluble”.

With `CCOC(=O)C(C)c1ccc(CC(C)C)cc1` (stereo not drawn) [Pro-IBU, ethyl 2-(4-isobutylphenyl)-propanoate] the “permeability (permeation) coefficient range” value [2] was 33.32-65.47 μg/h/cm^2, the lag time ([2]; human) was 2 to 5 h and the “Average Mass Released” value ([2]; human, 5 h) was 18.06 µg. The “Maximum (mass released)” value ([2]; human, 5 h) was 54.17 µg, the “Minimum (mass released)” value ([2]; human, 5 h) was 0.00 µg and the “mass detected in one of the wells” value ([2]; human, 5 h) was 54 µg. For the same molecule, the “Average Mass Released” value ([2]; human, 8 h) was 25.50 µg, the “Maximum (mass released)” value ([2]; human, 8 h) was 70.83 µg and the “Minimum (mass released)” value ([2]; human, 8 h) was 0.00 µg. The “concentration of Pro-IBU in the receptor media” value ([2]; human, 24 h) was ~200 µg/mL, the solubility [1] was ≥ 24.9 mg/mL and the “concentration of solution prepared in F3” value [3] was 44600 µg/mL. For the same molecule, the solubility ([5]; in DMSO and ethanol) was “soluble”.
